Measurements taken from US20060019284A1, “Identification of polynucleotides for predicting activity of compounds that interact with and/or modulate protein tyrosine kinases and/or protein tyrosine kinase pathways in lung cancer cells” (priority 2004, published 2006).

Key:
H441 lung cell line = experiment: In vitro cytotoxicity assay (MTS), IC50 determination; type: cell-based, human; details: H441 cells
Experimental: (§1) Cytotoxicity was assessed in cells by the MTS (3-(4,5-dimethylthiazol-2-yl)-5-(3-carboxy-methoxyphenyl)-2-(4-sulphenyl)-2H-tetrazolium, inner salt) assay (T. L. Riss et al., 1992, Mol. Biol. Cell, 3 (Suppl.): 184a).
(§2) To carry out the assays, the lung cells were plated at 4,000 cells/well in 96 well microtiter plates, and 24 hours later, serially diluted drugs were added. The concentration range for the protein tyrosine kinase inhibitor compound BMS-A used in the cytotoxicity assay was from 5 μg/ml to 0.0016 μg/ml (roughly 10 μM to 0.0032 μM).
(§3) The cells were incubated at 37° C. for 72 hours at which time the tetrazolium dye, MTS (333 μg/ml final concentration), in combination with the electron coupling agent phenazine methosulfate (25 μM final concentration), was added. A dehydrogenase enzyme in live cells reduces the MTS to a form that absorbs light and can be quantified spectrophotometrically at 492 nM. The greater the absorbency the greater the number of live cells. The results are expressed as an IC50, which is the drug concentration required to inhibit cell proliferation (i.e. absorbance at 492 nm) to 50% of that of untreated control cells. The mean IC50 and standard deviation (SD) from multiple tests for each cell line were calculated.
(§4) The mean IC50 of the BMS-A protein tyrosine kinase inhibitor compound across the 23 human lund cell lines was calculated. […]

SK-MES-1 lung cell line = experiment: as above; details: SK-MES-1 cells
Experimental: as §1, §2, §3, §4

H1155 lung cell line = experiment: as above; type: cell-based, human; details: H1155 cells, 72 hours, mean of 3 tests, read-out: Mean IC50 (uM) to BMS-A
Experimental: as §1, §2, §3, §4

L2987 lung cell line = experiment: as above; type: cell-based, human; details: L2987 cells
Experimental: as §1, §2, §3, §4

H838 lung cell line = experiment: as above; type: cell-based, human; details: H838 cells
Experimental: as §1, §2, §3, §4

H226 lung cell line = experiment: as above; type: cell-based, human; details: H226 cells
Experimental: as §1, §2, §3, §4

A549 cells = experiment: Drug (BMS-A) treatment of A549 cells and expression profiling (HG-U133 arrays); type: cell-based, human; details: A549, 0.4 μM, 4 and 24 hours
Experimental: To identify polynucleotides regulated by a protein tyrosine kinase inhibitor compound, e.g., BMS-A, a lung cell line A549 was treated with or without the BMS-A compound (0.4 μM) in 0.1% DMSO for 4 and 24 hours. Expression profiling was performed, and the data were analyzed using GeneChip® Expression Analysis software MAS 5.0 (Affymetrix, Santa Clara, Calif.). The polynucleotide expression of a cell line treated with drug was compared using pair-wise analysis to the polynucleotide expression of the cell line without drug treatment. A change in p-value was calculated, indicating an increase, decrease or no change in polynucleotide expression. When the p-value was less than 0.0025, the change was considered significant. Duplicated experiments were performed, and analysis of 4 cross comparisons were performed.
The lung cells were grown under standard cell culture conditions: RPMI 1640 supplemented to contain 10% fetal bovine serum, 100 IU/ml penicillin, […] streptomycin, 2 mM L-glutamine and 10 mM Hepes (all from GibcoBRL, Rockville, Md.). RNA was isolated from the cultured cells, either treated or untreated with drug (i.e., the protein tyrosine kinase inhibitor compound) at 50-70% confluence using the RNeasy™ kits commercially available from Qiagen, Valencia, Calif. The quality of the RNA was assessed by measuring the 28s:18s ribosomal RNA ratio using an Agilent 2100 bioanalyzer (Agilent Technologies, Rockville, Md.). The concentration of total RNA was determined spectrophotometrically. 10 μg of total RNA from each cell line was used to prepare biotinylated probe according to the Affymetrix Genechip® Expression Analysis Technical Manual, 2001. Targets were hybridized to Affymetrix high density oligonucleotide array human HG-U133 set chips (Affymetrix, Santa Clara, Calif.). The arrays were then washed and stained using the GeneChip® Fluidics station according to the manufacture's instructions (Affymetrix Genechip® Technical Manual, 2001). The HG-U133 set contains 2 Genechip® arrays, which contain approximately 45,000 probe sets representing more than 39,000 transcripts derived from approximately 33,000 well-substantiated human polynucleotides.
A549 cells were seeded in a 10 cm^2 culture plate in cell culture medium as described herein and were cultured for 24 hours at 37° C. The medium was then changed to medium containing drug (0.4 μM BMS-A compound in 0.1% DMSO, Sigma); the cells were incubated for 4 hour or 24 hours, and then lysed for RNA isolation. The expression profiling was performed as described above and data were analyzed using GeneChip® Expression Analysis software MAS 5.0 (Affymetrix, Santa Clara, Calif.). The expression data of a drug treated cell line was compared pair-wise to data from the same cell line untreated with drug. A change in p-value was calculated, indicating an increase, decrease or no change in polynucleotide expression. When the p-value was less than 0.0025, the change was considered to be significant. This analysis was performed for duplicated experiments

H2347 lung cell line = experiment: In vitro cytotoxicity assay (MTS), IC50 determination; type: cell-based, human; details: H2347 cells, 72 hours, mean of 4 tests, read-out: Mean IC50 (uM) to BMS-A
Experimental: as §1, §2, §3, §4

H661 lung cell line = experiment: as above; type: cell-based, human; details: H661 cells
Experimental: as §1, §2, §3, §4

H522 lung cell line = experiment: as above; type: cell-based, human; details: H522 cells
Experimental: as §1, §2, §3, §4

SW1271 lung cell line = experiment: as above; type: cell-based, human; details: SW1271 cells
Experimental: as §1, §2, §3, §4

[1] = system: panel of twenty-three human lung cell lines; experiment: In vitro cytotoxicity assay (MTS), whole panel; type: cell-based; details: across the 23 lung cell lines
Experimental: as §1, §2, §3, §4

Sk-LU-1 lung cell line = experiment: In vitro cytotoxicity assay (MTS), IC50 determination; type: cell-based, human; details: Sk-LU-1 cells
Experimental: as §1, §2, §3, §4

H23 lung cell line = experiment: as above; type: cell-based, human; details: H23 cells, 72 hours, mean of 4 tests, read-out: Mean IC50 (uM) to BMS-A
Experimental: as §1, §2, §3, §4

NCI-H596 lung cell line = experiment: as above; type: cell-based, human; details: NCI-H596 cells
Experimental: as §1, §2, §3, §4

SW900 lung cell line = experiment: as above; type: cell-based, human; details: SW900 cells
Experimental: as §1, §2, §3, §4

[2] = MTS, 72 hours, mean of 4 tests, read-out: Mean IC50 (uM) to BMS-A
[3] = IC50 relative to mean IC50 of all 23 cell lines
[4] = MTS, 72 hours, mean of 3 tests, read-out: Mean IC50 (uM) to BMS-A
[5] = MTS, 72 hours, mean of 2 tests, read-out: Mean IC50 (uM) to BMS-A

Cc1nc(Nc2ncc(C(=O)Nc3c(C)cccc3Cl)s2)cc(N2CCN(CCO)CC2)n1 [BMS-A, N-(2-chloro-6-methylphenyl)-2-[[6-[4-(2-hydroxyethyl)-1-piperazinyl]-2-methyl-4-pyrimidinyl]amino]-5-thiazolecarboxamide]
IC50 (H441 lung cell line; [2]): 0.141 µM | Classification (H441 lung cell line; [3]): Sensitive (cell lines having an IC50 below the mean IC50 were defined as sensitive to the compound) | Classification (SK-MES-1 lung cell line; [3]): Sensitive (cell lines having an IC50 below the mean IC50 were defined as sensitive to the compound) | IC50 (SK-MES-1 lung cell line; read-out: Mean IC50 (uM) to BMS-A, MTS, 72 hours, mean of 3 tests): 0.151 µM | IC50 (H1155 lung cell line): ≥ 1.02 µM | IC50 (L2987 lung cell line; [2]): 0.037 µM | Classification (L2987 lung cell line; [3]): Sensitive (cell lines having an IC50 below the mean IC50 were defined as sensitive to the compound) | IC50 (H838 lung cell line; [2]): 0.072 µM | Classification (H838 lung cell line; [3]): Sensitive (cell lines having an IC50 below the mean IC50 were defined as sensitive to the compound) | IC50 (H226 lung cell line; [4]): 0.058 µM | Classification (H226 lung cell line; [3]): Sensitive (cell lines having an IC50 below the mean IC50 were defined as sensitive to the compound) | Modulated by BMS-A (A549 cells; Gene No. 12 peroxisomal biogenesis factor 6 (NM_000287)): Yes | Modulated by BMS-A (A549 cells; Gene No. 24 cysteine-rich, angiogenic inducer, 61 (NM_001554)): Yes | Modulated by BMS-A (A549 cells; Gene No. 26 fibroblast growth factor 2 (basic) (NM_002006)): Yes | Modulated by BMS-A (A549 cells; Gene No. 35 polymerase I and transcript release factor (NM_012232)): Yes | Modulated by BMS-A (A549 cells; Gene No. 39 ESTs, Weakly similar to hypothetical protein FLJ20489 (AI004009)): Yes | Modulated by BMS-A (A549 cells; Gene No. 45 Rho GDP dissociation inhibitor (GDI) beta (NM_001175)): Yes | Modulated by BMS-A (A549 cells; Gene No. 47 FOS-like antigen 1 (NM_005438)): Yes | Modulated by BMS-A (A549 cells; Gene No. 58 collagen, type VI, alpha 1 (NM_001848)): Yes | Modulated by BMS-A (A549 cells; Gene No. 64 KIAA1237 protein (AI148659)): Yes | Modulated by BMS-A (A549 cells; Gene No. 69 a disintegrin-like and metalloprotease (reprolysin type) with thrombospondin type 1 motif, 1 (NM_006988)): Yes | Modulated by BMS-A (A549 cells; Gene No. 72 serum-inducible kinase (NM_006622)): Yes | Modulated by BMS-A (A549 cells; Gene No. 90 hypothetical protein FLJ20607 (NM_017899)): Yes | Modulated by BMS-A (A549 cells; Gene No. 98 germ cell specific Y-box binding protein (NM_015982)): Yes | Modulated by BMS-A (A549 cells; Gene No. 105 J domain containing protein 1 (NM_021800)): Yes | Modulated by BMS-A (A549 cells; Gene No. 110 inhibitor of DNA binding 2, dominant negative helix-loop-helix protein (NM_002166)): Yes | Modulated by BMS-A (A549 cells; Gene No. 115 neuronal cell adhesion molecule (NM_005010)): Yes | IC50 (H2347 lung cell line): ≥ 1.02 µM | IC50 (H661 lung cell line; [2]): 0.123 µM | Classification (H661 lung cell line; [3]): Sensitive (cell lines having an IC50 below the mean IC50 were defined as sensitive to the compound) | IC50 (H522 lung cell line; [4]): 0.215 µM | Classification (H522 lung cell line; [3]): Sensitive (cell lines having an IC50 below the mean IC50 were defined as sensitive to the compound) | IC50 (SW1271 lung cell line; [5]): 0.242 µM | Classification (SW1271 lung cell line; [3]): Sensitive (cell lines having an IC50 below the mean IC50 were defined as sensitive to the compound) | variation in the IC50 values among the twenty-three lung cell lines [1]: > 100 fold | IC50 (Sk-LU-1 lung cell line; [2]): 0.014 µM | Classification (Sk-LU-1 lung cell line; [3]): Sensitive (cell lines having an IC50 below the mean IC50 were defined as sensitive to the compound) | IC50 (H23 lung cell line): ≥ 1.02 µM | IC50 (NCI-H596 lung cell line; [5]): 0.124 µM | Classification (NCI-H596 lung cell line; [3]): Sensitive (cell lines having an IC50 below the mean IC50 were defined as sensitive to the compound) | IC50 (SW900 lung cell line; [4]): 0.507 µM | Classification (SW900 lung cell line; [3]): Sensitive (cell lines having an IC50 below the mean IC50 were defined as sensitive to the compound)
